Test results taken from publication PMC6560083, “A mechanism to prevent production of reactive oxygen species by Escherichia coli respiratory complex I” (Nature Communications, 2019).
Blank lines part the entries; values can stand above or below the molecule they belong to.

Legend:
[1] = biological target: T1, NuoEF of Aquifex aeolicus complex I (Aquifex aeolicus, UniProt O66841); test: X-ray crystal structure, soaked crystals; type: binding
T1 construct: gene nuoF; electron input subcomplex, NuoE (18 kDa) and NuoF (44 kDa) heterodimer, C-terminal hexahistidine tag on NuoF, expressed in E. coli; with NADH-quinone oxidoreductase subunit E
T1 sequence (O66841 1-426): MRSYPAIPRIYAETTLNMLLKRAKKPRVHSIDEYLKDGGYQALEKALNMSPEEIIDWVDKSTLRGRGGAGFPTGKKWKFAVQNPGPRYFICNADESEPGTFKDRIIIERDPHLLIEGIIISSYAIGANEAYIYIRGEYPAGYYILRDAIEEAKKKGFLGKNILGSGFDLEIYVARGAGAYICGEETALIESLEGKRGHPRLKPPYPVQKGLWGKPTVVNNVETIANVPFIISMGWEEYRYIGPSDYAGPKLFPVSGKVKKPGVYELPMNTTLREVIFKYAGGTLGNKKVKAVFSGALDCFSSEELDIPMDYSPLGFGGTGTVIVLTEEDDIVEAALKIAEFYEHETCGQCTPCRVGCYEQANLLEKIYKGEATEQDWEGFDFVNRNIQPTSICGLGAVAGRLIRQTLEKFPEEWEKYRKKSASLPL
T1 sequence (O66842 1-160 partner): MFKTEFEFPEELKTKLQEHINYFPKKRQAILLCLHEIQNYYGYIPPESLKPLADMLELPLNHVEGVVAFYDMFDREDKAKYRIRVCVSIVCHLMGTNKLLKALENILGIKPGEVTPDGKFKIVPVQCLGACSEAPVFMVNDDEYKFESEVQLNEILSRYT

[2] = biological target: T2, NuoEF of Aquifex aeolicus complex I (Aquifex aeolicus, UniProt O66841, S96M); test: X-ray crystal structure, soaked crystals; type: binding
T2 construct: gene nuoF; electron input subcomplex, NuoE (18 kDa) and NuoF (44 kDa) heterodimer, C-terminal hexahistidine tag on NuoF, expressed in E. coli; with NADH-quinone oxidoreductase subunit E

[3] = biological target: T3, NuoEF of Aquifex aeolicus complex I (Aquifex aeolicus, UniProt O66841); test: X-ray crystal structure, soaked crystals; type: binding; conditions: oxidized; ADP moiety defined, nicotinamide ring and its ribose not seen
T3 construct: gene nuoF; electron input subcomplex, NuoE (18 kDa) and NuoF (44 kDa) heterodimer, C-terminal hexahistidine tag on NuoF, expressed in E. coli; with NADH-quinone oxidoreductase subunit E

[4] = biological target: T3, NuoEF of Aquifex aeolicus complex I; test: X-ray crystal structure, soaked crystals; type: binding; conditions: oxidized
[5] = biological target: T1, NuoEF of Aquifex aeolicus complex I; test: X-ray crystal structure; type: binding; conditions: bound cofactor of NuoF, oxidized (6HL2) and dithionite-reduced (6HL4)
[6] = biological target: T4, Aquifex aeolicus complex I subunit NuoF (Aquifex aeolicus, UniProt O66841 1-426); test: crystal structure; NuoEF subcomplex crystallized at 20 °C by sitting drop vapor diffusion, 0.1 M Tris/HCl, 1.0 M sodium citrate, pH 6.9-7.1; air-oxidized, dithionite- or NADH-reduced, with and without soaked NAD+ or NADH; conditions: both partners purified
T4 construct: NuoF, subunit of the NADH:ubiquinone oxidoreductase (complex I) of Aquifex aeolicus; 44 kDa; the model contains 418 amino acids, eight residues at the C-terminus and the following hexahistidine tag not defined; Co-produced and co-purified with NuoE as the subcomplex NuoEF; also called original NuoEF (subunit F); source: overproducing E. coli strain, purified together with NuoE (Source 15Q anion …)
T4 sequence (looked up): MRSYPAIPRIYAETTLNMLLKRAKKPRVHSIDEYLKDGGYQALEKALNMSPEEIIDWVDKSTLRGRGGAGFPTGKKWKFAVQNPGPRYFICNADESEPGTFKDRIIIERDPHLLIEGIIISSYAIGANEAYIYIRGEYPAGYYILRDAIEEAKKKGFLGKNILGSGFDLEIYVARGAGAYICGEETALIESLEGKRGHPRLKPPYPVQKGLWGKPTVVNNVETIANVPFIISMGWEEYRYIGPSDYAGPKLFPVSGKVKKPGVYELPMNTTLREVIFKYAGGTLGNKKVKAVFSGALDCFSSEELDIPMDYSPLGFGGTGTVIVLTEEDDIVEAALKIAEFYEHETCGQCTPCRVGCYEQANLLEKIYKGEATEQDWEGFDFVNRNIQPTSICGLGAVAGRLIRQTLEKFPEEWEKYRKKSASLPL

[7] = biological target: T5, Aquifex aeolicus NuoF variant S96M (Aquifex aeolicus, UniProt O66841 1-426, S96M^F); test: as above; conditions: both partners purified
T5 construct: NuoF of Aquifex aeolicus complex I with S96 exchanged for methionine (the residue at the homologous position of E. coli NuoF); The His tag is told for the original NuoF; the variants were purified in the same way (Ni2+-IDA); also called S96M^F; NuoEF S96M^F; source: overproducing E. coli strain, purified together with NuoE (Source 15Q anion exchange, Ni2+-IDA, size exclusion)
T5 sequence (looked up): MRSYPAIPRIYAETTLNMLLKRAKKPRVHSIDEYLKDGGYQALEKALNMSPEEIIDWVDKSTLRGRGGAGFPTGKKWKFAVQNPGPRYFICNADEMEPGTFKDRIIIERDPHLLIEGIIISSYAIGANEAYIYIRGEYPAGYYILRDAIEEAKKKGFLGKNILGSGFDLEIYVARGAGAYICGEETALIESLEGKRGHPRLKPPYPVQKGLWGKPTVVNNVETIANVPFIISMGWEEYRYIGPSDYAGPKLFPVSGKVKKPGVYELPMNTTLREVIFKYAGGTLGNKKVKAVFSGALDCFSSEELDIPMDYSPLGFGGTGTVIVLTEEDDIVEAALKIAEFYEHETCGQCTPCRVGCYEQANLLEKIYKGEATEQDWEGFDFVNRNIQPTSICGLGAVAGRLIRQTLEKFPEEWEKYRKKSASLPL

purified protein = substrate: NC(=O)C1=CN([C@@H]2O[C@H](COP(=O)(O)OP(=O)(O)OC[C@H]3O[C@@H](n4cnc5c(N)ncnc54)[C@H](O)[C@@H]3O)[C@@H](O)[C@H]2O)C=CC1; test: purified protein; type: biochemical, Escherichia coli; conditions: 50 mM MES/NaOH, 50 mM NaCl, pH 6.0, electron acceptor of the Km titration not clearly stated (decyl-ubiquinone or ferricyanide)

Molecule: NC(=O)C1=CN([C@@H]2O[C@H](COP(=O)(O)OP(=O)(O)OC[C@H]3O[C@@H](n4cnc5c(N)ncnc54)[C@H](O)[C@@H]3O)[C@@H](O)[C@H]2O)C=CC1 [NADH]
X-ray crystal structure, soaked crystals ([1]; NADH soak, reduced state, 1.8-1.9 Å, nicotinamide in tight position, 6HLA with dithionite plus NADH): crystals of NuoEF were soaked with NAD^+, with NADH and with NADH plus dithionite
X-ray crystal structure, soaked crystals ([2]; reduced): 6Q9K (variant S96M, reduced with NADH)

Molecule: NC(=O)c1ccc[n+]([C@@H]2O[C@H](COP(=O)(O)OP(=O)(O)OC[C@H]3O[C@@H](n4cnc5c(N)ncnc54)[C@H](O)[C@@H]3O)[C@@H](O)[C@H]2O)c1 [NAD^+]
X-ray crystal structure, soaked crystals [3]: the oxidized G129D^E variant was soaked with NAD^+
X-ray crystal structure, soaked crystals ([1]; oxidized state, 10 mM NAD+ soak, 2.0 Å, loose position, 6HLI: dithionite-reduced, near tight position): crystals of NuoEF were soaked with NAD^+, with NADH and with NADH plus dithionite
X-ray crystal structure, soaked crystals [4]: 6HLJ (variant G129S, oxidized with NAD^+)
X-ray crystal structure, soaked crystals ([2]; oxidized, 3.22 Å): 6R7P (variant S96M, oxidized with NAD^+)

Molecule: Cc1cc2nc3c(=O)[nH]c(=O)nc-3n(C[C@H](O)[C@H](O)[C@H](O)COP(=O)(O)O)c2cc1C [FMN]
X-ray crystal structure [5]: Subunit NuoF binds the FMN cofactor as well as cluster N3

binding result [7]: binds
B1: Aquifex aeolicus complex I subunit NuoE (natural protein)
chain: MFKTEFEFPEELKTKLQEHINYFPKKRQAILLCLHEIQNYYGYIPPESLKPLADMLELPLNHVEGVVAFYDMFDREDKAKYRIRVCVSIVCHLMGTNKLLKALENILGIKPGEVTPDGKFKIVPVQCLGACSEAPVFMVNDDEYKFESEVQLNEILSRYT
notes: NuoE, subunit of the NADH:ubiquinone oxidoreductase (complex I) of Aquifex aeolicus; 18 kDa; the model comprises 154 amino acids, the first six N-terminal residues not defined (residues up to 160); holds the [2Fe-2S] cluster N1a; Co-produced and co-purified with His-tagged NuoF as the subcomplex NuoEF; also called original NuoEF (subunit E); source: overproducing E. coli strain, purified together …
binding result [6]: binds

B2: Aquifex aeolicus NuoE variant G129S (natural protein)
chain: MFKTEFEFPEELKTKLQEHINYFPKKRQAILLCLHEIQNYYGYIPPESLKPLADMLELPLNHVEGVVAFYDMFDREDKAKYRIRVCVSIVCHLMGTNKLLKALENILGIKPGEVTPDGKFKIVPVQCLSACSEAPVFMVNDDEYKFESEVQLNEILSRYT
notes: NuoE of Aquifex aeolicus complex I with G129 exchanged for serine; also called G129S^E; Ser-variant of NuoEF; source: E. coli, purified together with NuoF (Source 15Q anion exchange, Ni2+-IDA, size exclusion)
binding result [6]: binds

B3: Aquifex aeolicus NuoE variant G129D (natural protein)
chain: MFKTEFEFPEELKTKLQEHINYFPKKRQAILLCLHEIQNYYGYIPPESLKPLADMLELPLNHVEGVVAFYDMFDREDKAKYRIRVCVSIVCHLMGTNKLLKALENILGIKPGEVTPDGKFKIVPVQCLDACSEAPVFMVNDDEYKFESEVQLNEILSRYT
notes: NuoE of Aquifex aeolicus complex I with G129 exchanged for aspartate; also called G129D^E; Asp-variant of NuoEF; source: E. coli, purified together with NuoF (Source 15Q anion exchange, Ni2+-IDA, size exclusion)
binding result [6]: binds

B4: E. coli complex I (Escherichia coli K-12) (protein)
chain: MKNIIRTPETHPLTWRLRDDKQPVWLDEYRSKNGYEGARKALTGLSPDEIVNQVKDAGLKGRGGAGFSTGLKWSLMPKDESMNIRYLLCNADEMEPGTYKDRLLMEQLPHLLVEGMLISAFALKAYRGYIFLRGEYIEAAVNLRRAIAEATEAGLLGKNIMGTGFDFELFVHTGAGRYICGEETALINSLEGRRANPRSKPPFPATSGAWGKPTCVNNVETLCNVPAILANGVEWYQNISKSKDAGTKLMGFSGRVKNPGLWELPFGTTAREILEDYAGGMRDGLKFKAWQPGGAGTDFLTEAHLDLPMEFESIGKAGSRLGTALAMAVDHEINMVSLVRNLEEFFARESCGWCTPCRDGLPWSVKILRALERGEGQPGDIETLEQLCRFLGPGKTFCAHAPGAVEPLQSAIKYFREEFEAGIKQPFSNTHLINGIQPNLLKERW
notes: with NADH-quinone oxidoreductase subunit E; NADH-quinone oxidoreductase subunit G; NADH-quinone oxidoreductase subunit B; NADH-quinone oxidoreductase subunit C/D; NADH-quinone oxidoreductase subunit I; NADH-quinone oxidoreductase subunit A; NADH-quinone oxidoreductase subunit H; NADH-quinone oxidoreductase subunit J; NADH-quinone oxidoreductase subunit K; NADH-quinone oxidoreductase subunit L; …
Km (purified protein): 13 ± 1 µM
